Results from ChEMBL document CHEMBL4382249, “1-Arylsulfonyl indoline-benzamides as a new antitubulin agents, with inhibition of histone deacetylase” (Eur J Med Chem, 2019).

Columns and labels:
A549 = test: Growth inhibition of human A549 cells after 48 hrs by SRB assay; type: functional, cell-based; conditions: A549, 48 h
KB = test: Growth inhibition of human KB cells after 48 hrs by SRB assay; type: functional, cell-based
Tubulin = Tubulin (Bos taurus, UniProt Q6B856+Q862L2+Q862F3)
MKN-45 = test: Growth inhibition of human MKN45 cells after 48 hrs by SRB assay; type: functional, cell-based; conditions: MKN-45, 48 h
[1] = Growth inhibition of human KB-VIN10 cells after 48 hrs by SRB assay; type: functional; conditions: KB-VIN10, 48 h
Tubulin (Bos taurus) [2] = molecular target: T1, Tubulin (Bos taurus) (UniProt Q6B856+Q862L2+Q862F3); conditions: at 1 µM
[3] = Growth inhibition of human KB-7d cells after 48 hrs by SRB assay; type: functional; conditions: KB7D
[4] = Growth inhibition of human KB-S15 cells after 48 hrs by SRB assay; type: functional; conditions: KB-S15, 48 h
Tubulin (Bos taurus) [5] = molecular target: T1, Tubulin (Bos taurus); conditions: at 5 µM
[6] = molecular target: T2, Polyamine deacetylase HDAC10 (Homo sapiens, UniProt Q969S8); test: Inhibition of human HDAC10 using RHKKAc as substrate by fluorescence assay
T2 sequence (Q969S8 whole entry): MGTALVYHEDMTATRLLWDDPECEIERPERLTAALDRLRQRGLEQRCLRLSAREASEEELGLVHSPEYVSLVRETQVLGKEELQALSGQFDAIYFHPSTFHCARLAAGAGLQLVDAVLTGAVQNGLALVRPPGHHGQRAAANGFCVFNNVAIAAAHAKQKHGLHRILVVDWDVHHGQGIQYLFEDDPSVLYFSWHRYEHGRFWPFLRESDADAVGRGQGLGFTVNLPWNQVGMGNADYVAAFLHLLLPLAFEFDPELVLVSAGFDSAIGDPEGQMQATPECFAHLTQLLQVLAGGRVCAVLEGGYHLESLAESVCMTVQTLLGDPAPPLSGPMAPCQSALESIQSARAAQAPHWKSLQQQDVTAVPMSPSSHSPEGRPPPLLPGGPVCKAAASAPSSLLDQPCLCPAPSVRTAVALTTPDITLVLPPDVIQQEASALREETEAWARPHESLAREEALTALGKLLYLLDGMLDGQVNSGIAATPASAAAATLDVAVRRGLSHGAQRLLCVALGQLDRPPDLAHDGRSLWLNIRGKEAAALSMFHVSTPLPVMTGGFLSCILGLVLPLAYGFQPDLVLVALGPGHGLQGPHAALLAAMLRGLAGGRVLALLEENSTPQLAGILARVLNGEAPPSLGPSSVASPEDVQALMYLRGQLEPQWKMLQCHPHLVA

Histone deacetylase 9 = Histone deacetylase 9 (Homo sapiens, UniProt Q9UKV0); test: Inhibition of human HDAC9 using fluorogenic p53 (379-382) peptide RHKK(Ac) as substrate by fluorescence assay
Histone deacetylase 9, sequence (Q9UKV0 whole entry): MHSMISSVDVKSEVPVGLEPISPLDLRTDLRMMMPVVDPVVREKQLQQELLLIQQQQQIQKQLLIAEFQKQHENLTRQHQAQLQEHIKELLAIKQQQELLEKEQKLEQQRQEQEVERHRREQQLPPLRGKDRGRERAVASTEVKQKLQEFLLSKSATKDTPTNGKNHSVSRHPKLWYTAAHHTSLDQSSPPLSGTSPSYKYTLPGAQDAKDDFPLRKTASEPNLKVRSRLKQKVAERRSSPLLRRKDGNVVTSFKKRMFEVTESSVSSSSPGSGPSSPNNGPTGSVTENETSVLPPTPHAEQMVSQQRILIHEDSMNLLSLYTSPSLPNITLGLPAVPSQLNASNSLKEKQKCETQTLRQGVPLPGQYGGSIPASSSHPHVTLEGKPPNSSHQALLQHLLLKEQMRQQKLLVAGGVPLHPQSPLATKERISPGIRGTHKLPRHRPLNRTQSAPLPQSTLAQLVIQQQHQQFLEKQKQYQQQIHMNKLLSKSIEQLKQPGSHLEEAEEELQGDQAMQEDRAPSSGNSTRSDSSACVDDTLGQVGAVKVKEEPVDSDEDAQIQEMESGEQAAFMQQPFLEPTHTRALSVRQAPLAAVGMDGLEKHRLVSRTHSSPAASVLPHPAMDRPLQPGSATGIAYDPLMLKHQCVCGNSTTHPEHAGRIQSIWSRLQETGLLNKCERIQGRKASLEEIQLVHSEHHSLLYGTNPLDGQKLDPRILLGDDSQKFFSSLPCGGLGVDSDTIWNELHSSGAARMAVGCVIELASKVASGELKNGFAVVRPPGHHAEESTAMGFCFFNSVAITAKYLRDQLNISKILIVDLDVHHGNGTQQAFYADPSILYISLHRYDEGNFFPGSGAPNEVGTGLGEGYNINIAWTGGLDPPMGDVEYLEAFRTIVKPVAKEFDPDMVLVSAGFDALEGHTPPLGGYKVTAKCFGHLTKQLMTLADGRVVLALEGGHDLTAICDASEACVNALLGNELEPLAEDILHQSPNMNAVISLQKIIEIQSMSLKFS

Histone deacetylase 4 = Histone deacetylase 4 (Homo sapiens, UniProt P56524); test: Inhibition of human HDAC4 using fluorogenic p53-derived peptide RHKK(Ac) as substrate by fluorescence assay
Histone deacetylase 4, sequence (P56524 whole entry): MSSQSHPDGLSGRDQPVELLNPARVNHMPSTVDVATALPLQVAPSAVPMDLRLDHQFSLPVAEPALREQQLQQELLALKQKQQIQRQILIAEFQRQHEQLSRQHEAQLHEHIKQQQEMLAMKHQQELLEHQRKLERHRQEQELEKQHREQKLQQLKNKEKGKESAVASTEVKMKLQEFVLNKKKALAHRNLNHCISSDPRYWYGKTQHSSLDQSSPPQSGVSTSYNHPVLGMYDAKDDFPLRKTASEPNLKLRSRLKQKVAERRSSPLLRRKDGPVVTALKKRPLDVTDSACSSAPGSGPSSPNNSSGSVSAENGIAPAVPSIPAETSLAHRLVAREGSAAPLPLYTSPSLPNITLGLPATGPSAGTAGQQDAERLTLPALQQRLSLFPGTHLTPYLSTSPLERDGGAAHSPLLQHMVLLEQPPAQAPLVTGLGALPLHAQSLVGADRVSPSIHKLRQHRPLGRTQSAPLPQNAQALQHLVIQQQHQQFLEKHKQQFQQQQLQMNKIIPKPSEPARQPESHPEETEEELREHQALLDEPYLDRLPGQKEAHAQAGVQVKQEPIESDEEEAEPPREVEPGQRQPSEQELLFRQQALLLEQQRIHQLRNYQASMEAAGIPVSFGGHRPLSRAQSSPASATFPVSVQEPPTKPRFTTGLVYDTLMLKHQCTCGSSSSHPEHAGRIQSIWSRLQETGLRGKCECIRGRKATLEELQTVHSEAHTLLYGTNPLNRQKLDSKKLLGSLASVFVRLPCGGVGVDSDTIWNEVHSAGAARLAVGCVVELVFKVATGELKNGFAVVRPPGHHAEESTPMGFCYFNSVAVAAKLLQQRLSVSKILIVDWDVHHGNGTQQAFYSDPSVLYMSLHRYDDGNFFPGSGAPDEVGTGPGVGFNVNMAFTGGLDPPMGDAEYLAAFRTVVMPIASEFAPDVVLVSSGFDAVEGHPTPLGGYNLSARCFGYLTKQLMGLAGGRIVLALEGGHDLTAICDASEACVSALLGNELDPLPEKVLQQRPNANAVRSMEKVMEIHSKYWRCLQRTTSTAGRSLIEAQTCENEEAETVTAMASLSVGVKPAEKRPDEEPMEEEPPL

Row | IC50 (A549) [nM] | IC50 (KB) [nM] | IC50 (Tubulin) [nM] | IC50 (MKN-45) [nM] | Compound | further results
1 | 3900 | 1440 | > 10000 | 2500 | COc1ccc(S(=O)(=O)n2ccc3ccc(NCc4ccc(C(=O)Nc5ccccc5N)cc4)cc32)cc1 | 
2 | 450 | 200 | 2300 | 420 | COc1ccc(S(=O)(=O)N2CCc3cccc(NCc4ccc(C(=O)Nc5cccc(N)c5)cc4)c32)cc1 | 
3 | 2400 | 870 | > 10000 | 2100 | COc1ccc(S(=O)(=O)N2CCc3ccc(NCc4ccc(C(=O)Nc5ccccc5N)cc4)cc32)cc1 | 
4 | 920 | 560 | 6400 | 880 | N#Cc1ccc(S(=O)(=O)N2CCc3cccc(NCc4ccc(C(=O)Nc5ccccc5N)cc4)c32)cc1 | 
5 | 560 | 210 | 4000 | 460 | Nc1ccccc1NC(=O)c1ccc(CNc2cccc3c2N(S(=O)(=O)c2ccc(Cl)cc2)CC3)cc1 | 
6 | 200 | 110 | 2500 | 130 | COc1ccc(S(=O)(=O)N2CCc3cccc(CCc4ccc(C(=O)Nc5ccccc5N)cc4)c32)cc1 | 
7 | 930 | 540 | 3700 | 870 | Nc1ccccc1NC(=O)c1ccc(CNc2cccc3c2N(S(=O)(=O)c2ccc(F)cc2)CC3)cc1 | 
8 | 270 | 230 | 2700 | 200 | COc1ccc(S(=O)(=O)N2CCc3cccc(/C=C/c4ccc(C(=O)Nc5ccccc5N)cc4)c32)cc1 | 
9 | 1100 | 780 | 3500 | 800 | COc1cccc(S(=O)(=O)N2CCc3cccc(NCc4ccc(C(=O)Nc5ccccc5N)cc4)c32)c1 | 
10 | 640 | 130 | 3700 | 440 | COc1ccc(S(=O)(=O)n2ccc3cccc(NCc4ccc(C(=O)Nc5ccccc5N)cc4)c32)cc1 | 
11 | 190 | 120 | 2300 | 140 | COc1ccc(S(=O)(=O)N2CCc3cccc(Nc4ccc(C(=O)Nc5ccccc5N)cc4)c32)cc1 | IC50 [1]: 114 nM; inhibition (Tubulin (Bos taurus) [2]): 64.3%; IC50 [3]: 78.3 nM; IC50 [4]: 106 nM; inhibition (Tubulin (Bos taurus) [5]): 98.8%
12 | 870 | 260 | 3200 | 780 | Nc1ccccc1NC(=O)c1ccc(CNc2cccc3c2N(S(=O)(=O)c2ccccc2)CC3)cc1 | 
13 | 8900 | 2100 | > 10000 | 5000 | COc1ccc(S(=O)(=O)N2CCc3cc(NCc4ccc(C(=O)Nc5ccccc5N)cc4)ccc32)cc1 | 
14 |  |  | 3200 |  | COc1ccc(S(=O)(=O)Nc2cccnc2Nc2ccc(O)cc2)cc1 [ABT-751] | inhibition (Tubulin (Bos taurus) [2]): 40.2%; inhibition (Tubulin (Bos taurus) [5]): 71.6%
15 | 2700 | 1400 | > 10000 | 2300 | COc1ccc(S(=O)(=O)N2CCc3cccc(NCc4ccc(C(=O)Nc5ccccc5N)cc4)c32)cc1OC | 
16 | > 10000 |  |  |  | COc1ccc(S(=O)(=O)N2CCc3cccc(NC(=O)c4ccc(C(=O)Nc5ccccc5N)cc4)c32)cc1 | 
17 | 10500 | 8700 | > 10000 | 10000 | COc1ccc(S(=O)(=O)N2CCc3cccc(NCc4ccc(C(=O)Nc5ccccc5O)cc4)c32)cc1 | 
18 | 860 | 440 | 3300 | 780 | Nc1ccccc1NC(=O)c1ccc(CNc2cccc3c2N(S(=O)(=O)c2ccc(O)cc2)CC3)cc1 | 
19 | 570 | 260 | 3700 | 480 | COc1ccc(S(=O)(=O)N2CCc3cccc(NCc4ccc(C(=O)Nc5ccc(N)cc5)cc4)c32)cc1 | 
20 |  | 520 |  | 1200 | Nc1ccccc1NC(=O)c1ccc(CNC(=O)OCc2cccnc2)cc1 [ENTINOSTAT] | IC50 [6]: Not Active; IC50 (Histone deacetylase 9): Not Active; IC50 (Histone deacetylase 4): Not Active
21 | 5700 | 2200 | 8500 | 3900 | COc1ccc(S(=O)(=O)N2CCc3cccc(NCc4cccc(C(=O)Nc5ccccc5N)c4)c32)cc1 | 
